Read-outs that look alike come from different tables or passages of the source. Where a SMILES comes first, the peptide text is derived from it. Where no end group is shown, it is not given here.
Experiments:
[1] = test system: VyPAL2; test: VyPAL2-catalyzed peptide cyclization (substrate screen, pH scan, kinetics); format: biochemical, Viola yedoensis
Description: (§1) FIG. 9. Screening of P1′-Asp peptides for cyclization by A) VyPAL2, B) butelase-1 and C) OaAEP1b. Quantitative summary of reaction yields of the reaction mixtures. For each reaction, 25 nM of the enzyme and 5 μM of the peptide substrate (21a-21i) were mixed and reacted at pH 4.5, 25° C. for 60 min. The positive control peptide 21j was performed at the same conditions except at pH 7.4. Average yields and SDs were calculated from experiments performed in triplicate. The amino acid sequence of the peptides used are set forth in SEQ ID Nos. 15-24.
(§2) FIG. 10. Ligation activity of three different ligases under different pH and substrate. Cyclization activity of A) VyPAL2, B) Butelase-1 or C) OaAEP1b towards substrate 21e-DSL and 21j-NGL; Fold difference was calculated using the cyclization rate of 21j-NGL divided by that of 21e-DSL. All the results were the average reaction rate at different pH in triplicate experiments based on MALDI-TOF analysis. Light grey text in the “Fold difference” axis marks to the maximum fold difference.
(§3) FIG. 11. Enzymatic activity of three different ligases on the cyclization reaction of P1-Asp peptide 21e-DSL or 21a-DGL and P1-Asn-peptide 21j-NGL. A) Scheme of PAL-mediated P1-Asp peptide cyclization; B) Enzymatic kinetics of VyPAL2 in cyclizing 21e-DSL at pH 4.5; C) Enzymatic kinetics of VyPAL2 in cyclizing 21e-DSL at pH 7.0; D) Enzymatic kinetics of OaAEP1b in cyclizing 21a-DGL at pH 5.5; E) Enzymatic kinetics of Butelase-1 in cyclizing 21e-DSL at pH 4.5. F) Scheme of PAL-mediated cyclization of peptide 21j-NGL; G). Enzymatic kinetics of butelase-1 in cyclizing […] at pH 4.5; H)
(§4) Enzymatic kinetics of VyPAL2 in cyclizing 21j-NSL at pH 4.5; I) Enzymatic kinetics of butelase-1 in cyclizing 21j-NSL at pH 7.4; J) Enzymatic kinetics of OaAEP1b in cyclizing 21j-NSL at pH 7.0. Sequences of peptides used are set forth in SEQ ID Nos. 15, 19, 24.
(§5) PALs recognize a tripeptide motif Asx-P1′-P2′ in the acyl donor substrate for their catalyzed ligation reactions. Because the formation of the acyl-enzyme thioester intermediate is the rate-limiting step, the leaving group P1′-P2′ also plays an important role in determining the catalytic kinetics of a particular 40 PAL-mediated reaction. Previous studies have determined Leu as a preferred P2′ residue. To identify the most favorable P1′ residues for PAL-catalyzed Asp-ligation, a panel of peptides (peptide 21a-21j) with C-terminal DXL and N-terminal GI motifs was synthesized and cyclization reactions performed. Peptide 21j with a C-terminal NGL, a P1-Asn peptide favored by VyPAL2, was used for comparison with the P1-Asp peptides 21a-21i. […] Meanwhile, the P1′ substrate specificities of the two other ligases - Butelase-1 and OaAEP1b - were also evaluated by using the same substrates 21a-21j.
scanning experiment using the two peptides 21e and 21j was performed. Cyclization reactions were conducted by mixing 5 μM of peptide 21e or 50 μM of 21j with 25 nM of VyPAL2 over a pH range of 4.0 to 7.4. Results confirmed that the optimum pH for the cyclization of the P1-Asn peptide 21j was 6.5-7.4. But for the P1-Asp peptide 21e (which has the C-terminal DSL tripeptide), the optimum pH was 4.0-4.5.
It is worth noting that, at pH 7.4, VyPAL2 processed peptide 21j for cyclization at a rate that is >1000 folds faster than processing peptide 21e (FIG. 10). This enormous difference of reactivity essentially established the orthogonality for ligation at Asn in the presence of aspartyl bonds.

[2] = test system: butelase-1; test: Butelase-1-catalyzed peptide cyclization (substrate screen, pH scan, kinetics); format: biochemical; details: for Km / kcat: Butelase-1, cyclization
Description: as §1, §2, §3, §4, §5
(§6) A pH scan experiment with the other two ligases: butelase-1 and OaAEP1 b, for their cyclase activity on 21e and 21j was also conducted. […] In fact, the difference in reaction efficiency between 21j and 21e was about 950 times at pH 7.4 (FIG. 10). […] This makes VyPAL2 a more efficient ligase than butelase-1 for Asp-mediated protein modification.

[3] = test system: OaAEP1b; test: OaAEP1b-catalyzed peptide cyclization (substrate screen, pH scan, kinetics); format: biochemical; details: for Km / kcat: cyclization
Description: as §1, §2, §3, §4, §5, §6
It seems that the microenvironment within the 51 pocket of OaAEP1 b has a unique ability to maintain the γCOOH of P1-Asp in the protonated form. However, for OaAEP1b-catalyzed cyclization, the difference in reactivity between 21j and 21e at pH 4.0-7.4 was not very high. The biggest difference was 9.5 folds at pH 7.4. […]

[4] = Water solubility; format: physicochemical
[5] = test system: A431 cells; test: MTT cell viability assay, A431; format: cell-based
Description: (§7) Cytotoxicity study of 12. […] Cells were treated either with phosphate buffer (as negative control) 11 or 12 for 72 h and then subjected to microscopy analysis after washing 3 times with PBS; C) IC50 of MCF-7 and A 431 cells. Cells were both treated with 12 for 84 h and then MTT based viability test was performed to acquire the optical absorbance value to allow calculating the corresponding IC50.
(§8) Cell viability assay. MTT assays were carried out following recommended protocols from Sigma-Aldrich (Cat. No. 11465001001). Cells were first seeded in a 96-well tissue culture plate with 100 μl medium to grow until the confluency reached 40-60% of the plates surface. Peptides and proteins were added and incubated for 84 h, followed by adding 10 μl of MTT I to each well and further incubated for approximately 4 h. After this, MTT II was added and incubated at 37° C. for overnight to solubilize the purple crystals. Spectrophotometrical absorbance measurement of the samples was carried out by using a microplate reader (Biotek, citation 5) at the wavelength of 575 nm and the reference wavelength was 670 nm.
(§9) An MTT assay was performed to determine whether 12 had any effects on the two cell lines, the EGFR-overexpressing A431 cells and the MCF-7 cells which have a low EGFR expression level [54]. Both cell lines were treated with 12 for 84 h and then subjected to MTT analysis.
(§10) Next, MTT assay was conducted to determine the IC50.
(§11) Bright Field Microscopy analysis and MTT assay were performed to determine the inhibitory effects of 48 on MCF-7 and A431 cell lines. […] Next, MTT assay was performed to determine the IC50.

[6] = test system: EGFR-overexpressing A431 cells; test: Fluorescence microscopy cell binding/staining, A431; format: cell-based; details: A431, 30-min treatment
Description: Imaging and binding study of 12 on EGFR-overexpressing A431 cells.
A) Fluorescent microscopy analysis of MCF-7 cells after treatment with 20, DOX and blank at room temperature for 30 min. B) Fluorescent microscopy analysis of A431 cells after treatment with 20, DOX and blank at room temperature for 30 min. For cell staining experiments in A) and B), nucleus was stained with 700 nM of DAPI; 10 μM DOX and 2 μM 20 were used respectively. Scal bar=50 μm. […] Microscopy analysis of cells treated with 20. […] Scal bar=100 μm.
Confocal analysis of MCF-7 and A431 cells treated with affibody 48. Fluorescent microscopy analysis of MCF-7 and A431 cells after treatment with blank, Dox, 47 and 48 for 30 min. […]
MCF-7 and A431 cells cultured in 24 well plates were washed with PBS for 3 times. […] After this, the cells were washed with PBS for 3 times and subjected to imaging analysis using Inverted Fluorescence Microscope (Olympus Life Science #IX71). […] Likewise, “Red” channel (Filter Cube: 550 nm) was used to obtain the doxorubicin fluorescence and “Green” channel (Filter Cube: 450 nm) for fluorescein.
To study the activities of the dually labeled product 12, its binding towards EGFR-overexpressing A431 cells was analyzed.
The intrinsic fluorescence of doxorubicin serves as an imaging tool to visualize the binding of 20 to the cells (FIG. 8A, 8B). […]

[7] = test system: MCF-7 cells; test: Fluorescence microscopy cell binding/staining, MCF-7; format: cell-based; details: MCF-7, 30-min treatment
Description: A) Fluorescent microscopy analysis of MCF-7 cells after treatment with 20, DOX and blank at room temperature for 30 min. […] For cell staining experiments in A) and B), nucleus was stained with 700 nM of DAPI; 10 μM DOX and 2 μM 20 were used respectively. […] Microscopy analysis of cells treated with 20.
Confocal analysis of MCF-7 and A431 cells treated with affibody 48. Fluorescent microscopy analysis of MCF-7 and A431 cells after treatment with blank, Dox, 47 and 48 for 30 min. For cell staining experiments, cells were fixed with 4% formaldehyde and permeabilized with 0.2% tritonX-100. The cell nucleus was stained with 1 μM of DAPI. Dox and protein 47, 48 diluted in PBS were all added in 10 μM. All the staining experiments were performed for 30 min at room temperature; Scale bar=50 μm.
Peptides or proteins in complete medium were applied to the cells and incubated for 30 min at 37° C. Washing was done 3 times with PBS and cells were subsequently subjected to microscopy analysis.
Cell staining and imaging. MCF-7 and A431 cells cultured in 24 well plates were washed with PBS for 3 times. […] After this, the cells were washed with PBS for 3 times and subjected to imaging analysis using Inverted Fluorescence Microscope (Olympus Life Science #IX71). […] Likewise, “Red” channel (Filter Cube: 550 nm) was used to obtain the doxorubicin fluorescence and “Green” channel (Filter Cube: 450 nm) for fluorescein. […]

[8] = test system: MCF-7 cells; test: MTT cell viability assay, MCF-7; format: cell-based
Description: as §7, §8, §9, §10, §11

[9] = cyclization of a model peptide; cited from earlier work
[10] = target: T1, Peptide 21a (SEQ ID NO:15), GISTKSIPPISYRDGL
T1 chain: GISTKSIPPISYRDGL

[11] = target: T2, Peptide 21j (SEQ ID NO:24), GISTKSIPPISYRNGL
T2 chain: GISTKSIPPISYRNGL

butelase-1, sequence (as listed by the source): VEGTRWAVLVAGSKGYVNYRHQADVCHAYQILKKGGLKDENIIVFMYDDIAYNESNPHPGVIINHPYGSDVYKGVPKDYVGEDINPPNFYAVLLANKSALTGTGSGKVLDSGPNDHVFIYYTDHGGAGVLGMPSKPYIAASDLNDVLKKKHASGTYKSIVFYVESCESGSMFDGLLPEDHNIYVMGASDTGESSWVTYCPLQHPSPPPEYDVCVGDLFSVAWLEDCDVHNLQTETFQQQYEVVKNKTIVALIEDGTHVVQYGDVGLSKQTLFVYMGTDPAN

Molecule: GISTKSIPPISYRNGL (GISTKSIPPISYRNGL-NH2) [Peptide 21j]
- optimum pH for cyclization ([1]; 25 nM VyPAL2, pH range 4.0 to 7.4, 5 μM 21e or 50 μM 21j): 6.5-7.4
- Km ([1]; VyPAL2, cyclization, pH 4.5): 28.4 ± 4.1 µM
- kcat ([1]; VyPAL2, cyclization, pH 4.5): 1.9 ± 0.18 s⁻¹
- Km ([1]; VyPAL2, cyclization, pH 7.4): 25.8 ± 1.7 µM
- Vmax ([1]; VyPAL2, cyclization, pH 7.4): 5.633 µM/min
- kcat ([1]; VyPAL2, cyclization, pH 7.4): 5.5 ± 0.4 s⁻¹
- fold difference, cyclization rate of 21j versus 21e ([1]; VyPAL2, pH 7.4): > 1000 folds
- Km ([2]; pH 4.5): 12.7 ± 2.1 µM
- kcat ([2]; pH 4.5): 0.6 ± 0.05 s⁻¹
- Km ([2]; pH 7.4): 13.5 ± 1.5 µM
- kcat ([2]; pH 7.4): 9.4 ± 0.3 s⁻¹
- difference in reaction efficiency between 21j and 21e ([2]; butelase-1, pH 7.4): about 950 times
- Km ([3]; pH 7.0): 25.3 ± 2.5 µM
- kcat ([3]; pH 7.0): 5.5 ± 0.3 s⁻¹
- difference in reactivity between 21j and 21e (biggest) ([3]; pH 7.4): 9.5 folds

Molecule: COc1cccc2c1C(=O)c1c(O)c3c(c(O)c1C2=O)C[C@@](O)(C(=O)CO)C[C@@H]3O[C@H]1C[C@H](N)[C@H](O)[C@H](C)O1 [Dox, doxorubicin]
- water solubility [4]: poorly soluble in water
- IC50 ([5]; Homo sapiens, A-431, A431, 36 h, MTT, read-out: IC50): 1.3 ± 0.04 µM
- IC50 ([5]; Homo sapiens, A-431, A431, 96 h, MTT, read-out: IC50): 1.22 ± 0.15 µM
- cell staining (confocal) ([6]; 10 μM): stained
- cell staining ([6]; 2 μM 20, 10 μM DOX): stained
- cell staining (confocal) ([7]; 10 μM): stained
- cell staining ([7]; 2 μM 20, 10 μM DOX): stained
- IC50 ([8]; Homo sapiens, MCF7, MCF-7, 36 h, MTT, read-out: IC50): 1 ± 0.02 µM
- IC50 ([8]; Homo sapiens, MCF7, MCF-7, 96 h, MTT, read-out: IC50): 1.6 ± 0.23 µM

Molecule: GISTKSIPPISYRDGL (GISTKSIPPISYRDGL-NH2) [Peptide 21a]
- Km ([3]; pH 5.5): 35.1 ± 5.9 µM
- kcat ([3]; pH 5.5): 5.9 ± 0.7 s⁻¹

Molecule: CC[C@H](C)[C@H](NC(=O)CN)C(=O)NCC(=O)NCC(=O)N[C@@H](Cc1ccccc1)C(=O)N[C@@H](CCCCN)C(=O)NCC(=O)NCC(=O)N[C@H](CCCCN)C(=O)N[C@H](CC(C)C)C(=O)N[C@H](C)C(=O)N[C@H](CCCCN)C(=O)N[C@H](CC(C)C)C(=O)N[C@H](C)C(=O)N[C@H](CCCCN)C(=O)N[C@H](CCCCN)C(=O)N[C@H](CC(C)C)C(=O)N[C@H](C)C(=O)N[C@H](CCCCN)C(=O)N[C@H](CC(C)C)C(=O)N[C@H](C)C(=O)N[C@H](CCCCN)C(N)=O [Peptide 11] (HELM PEPTIDE1{G.I.G.G.F.K.G.G.[dK].[dL].[dA].[dK].[dL].[dA].[dK].[dK].[dL].[dA].[dK].[dL].[dA].[dK].[am]}$$$$V2.0; N-terminus assumed)
- IC50 ([5]; 84 h): ~1300 µM
- IC50 ([8]; 84 h): ~480 µM

B1: VyPAL2: plant legumain from the Viola Yedoensis family, highly active peptidyl asparaginyl ligase (SEQ ID NO:1) (protein)
chain: DSIGTRWAVLIAGSKGYHNYRHQADVCHMYQILRKGGVKDENIIVFMYDDIAYNESNPFPGIIINKPGGENVYKGVPKDYTGEDINNVNFLAAILGNKSAIIGGSGKVLDTSPNDHIFIYYADHGAPGKIGMPSKPYLYADDLVDTLKQKAATGTYKSMVFYVEACNAGSMFEGLLPEGTNIYAMAASNSTEGSWITYCPGTPDFPPEFDVCLGDLWSITFLEDCDAHNLRTETVHQQFELVKKKIAYASTVSQYGDIPISKDSLSVYM
modifications: VyPAL2 core domain
- catalytic efficiency [9]: 274,325 M^−1 s^−1

B2: OaAEP1b (SEQ ID NO:44) (protein)
chain: SVGTRWAVLIAGSKGYANYRHQAGVCHAYQILKRGGLKDENIVVFMYDDIAYNESNPRPGVIINSPHGSDVYAGVPKDYTGEEVNAKNFLAAILGNKSAITGGSGKVVDSGPNDHIFIYYTDHGAAGVIGMPSKPYLYADELNDALKKKHASGTYKSLVFYLEACESGSMFEGILPEDLNIYALTSTNTTESSWAYYCPAQENPPPPEYNVCLGDLFSVAWLEDSDVQNSWYETLNQQYHHVDKRISHASHATQYGNLKLGEEGLFVYMGSNPANDNYTSLDGNALTPSSIVVNQRDAD
- Km, cyclization at pH 5.5 [10]: 35.1 µM
- kcat, cyclization at pH 5.5 [10]: 5.9 s⁻¹
- kcat/Km, cyclization at pH 5.5 [10]: 172000 ± 9250 M^-1s^-1
- Km, cyclization at pH 7.0 [11]: 25.3 µM
- kcat, cyclization at pH 7.0 [11]: 5.5 s⁻¹
- kcat/Km, cyclization at pH 7.0 [11]: 211000 ± 8260 M^-1s^-1

From patent US20240117402A1, “METHODS FOR (POLY) PEPTIDE TANDEM LIGATION AND CYCLIZATION” (Nanyang Technological University, priority 2021, published 2024)
